# Measured values taken from patent US9399644B2, “[1,3] dioxolo [4,5-G] quinoline-6(5H)thione derivatives as inhibitors of the late SV40 factor (LSF) for use in treating cancer” (TRUSTEES OF BOSTON UNIVERSITY, priority 2011, dated 2016).
# Assays:
# LSF = biological target: T1, LSF (Homo sapiens, UniProt Q12800); assay: LSF-dependent reporter assay (dual luciferase); format: cell-based; settings: for LSF inhibition (result in words): NIH 3T3 cells transfected with LSF expression vector and LSF-driven firefly luciferase reporter, FIGS. 5-7
# T1 construct: expressed in transfected cells; host or cells: NIH 3T3 cells
# T1 sequence (Q12800 1-502): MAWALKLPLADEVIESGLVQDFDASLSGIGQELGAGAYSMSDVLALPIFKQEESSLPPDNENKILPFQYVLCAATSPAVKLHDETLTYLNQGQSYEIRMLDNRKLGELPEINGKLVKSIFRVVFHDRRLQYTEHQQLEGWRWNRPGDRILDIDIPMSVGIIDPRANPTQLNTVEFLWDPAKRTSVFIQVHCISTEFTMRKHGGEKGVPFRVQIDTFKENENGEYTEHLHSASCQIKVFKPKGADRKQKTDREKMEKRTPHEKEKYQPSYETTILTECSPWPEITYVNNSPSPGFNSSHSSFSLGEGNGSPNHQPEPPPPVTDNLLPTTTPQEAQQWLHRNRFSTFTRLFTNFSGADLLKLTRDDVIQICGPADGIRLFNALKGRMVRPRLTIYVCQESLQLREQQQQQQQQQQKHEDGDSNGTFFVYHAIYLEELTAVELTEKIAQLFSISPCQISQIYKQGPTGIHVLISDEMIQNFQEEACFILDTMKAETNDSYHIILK
# Protocol: NIH 3T3 cells were transfected with the expression construct pEF1α-LSF, an LSF expression vector^1,2; the reporter construct pGL3B-WT4E1b, a firefly luciferase reporter vector driven by LSF^3; phRL-TK, a control renilla luciferase reporter vector; and pEFGP, essentially as previously described^3. Five hours after transfection, either vehicle (DMSO) or compounds (VI, I and II, IV and V) were added (FIG. 7, FIG. 5 and FIG. 6, respectively), keeping DMSO at 0.5%. Cell extracts were harvested 36 hours post-transfection and firefly and renilla luciferase activities measured via a dual luciferase assay (Promega). Five μl of extract was mixed with 30 μl of luciferase assay reagent (Promega), and luminescence measured for 10 seconds using a 20/20n luminometer (Turner Biosystems). Subsequently, 30 μl of Stop & Glo reagent (Promega) was added, and luminescence also measured for 10 seconds. LSF transactivation activity is given as relative luciferase activity, the ratio of firefly to renilla activities, and normalized to the relative luciferase activity in the presence of vehicle alone. Data for this assay are shown in graphically in FIGS. 5-7.
# [1] = test system: hepatocellular carcinoma (HCC); settings: single treatment; cited from earlier work
Structure (SMILES),LSF inhibition (result in words) (LSF),other results
"CCOc1ccccc1-c1cc(=S)[nH]c2cc3c(cc12)OCO3 [Compound III, 8-(2-ethoxyphenyl)-[1,3]dioxolo[4,5-g]quinolin-6(5H)-thione]",exhibit properties as LSF inhibitors,–
CNC(=O)c1cc(Oc2ccc(NC(=O)Nc3ccc(Cl)c(C(F)(F)F)c3)cc2)ccn1 [sorafenib],–,increase of survival [1]: 2-3 months
CCOc1ccccc1[C@H]1CC(=S)Nc2cc3c(cc21)OCO3 [Compound II],exhibit properties as LSF inhibitors,–
CCOc1ccccc1[C@@H]1CC(=S)Nc2cc3c(cc21)OCO3 [Compound I],exhibit properties as LSF inhibitors,–

# Further lines, with some results ahead:
LSF inhibition (result in words) (LSF),Structure (SMILES),other results
exhibit properties as LSF inhibitors,CCOc1ccccc1[C@@H]1Cc2nncn2-c2cc3c(cc21)OCO3 [IV],–
exhibit properties as LSF inhibitors,CCOc1ccccc1[C@H]1Cc2nncn2-c2cc3c(cc21)OCO3 [Compound V],–
particularly strong LSF inhibitors,"CCOc1ccccc1C1CC(=S)Nc2cc3c(cc21)OCO3 (racemic) [racemic mixture of compounds I and II, 8-(2-ethoxyphenyl)-7,8-dihydro-[1,3]dioxolo[4,5-g]quinoline-6(5H)-thione]",effectiveness as LSF inhibitor compared with the racemic mixture of compounds IV and V (FIG. 6) and Compound VI (FIG. 7) (LSF; FIG. 5 versus FIG. 6 and FIG. 7): about 10 times; rank among LSF inhibitors observed by the applicants (LSF; experiments thus far performed by the applicants): strongest LSF inhibitor so far observed
